Holding throughout (assay): NCI tumour cell line growth inhibition, 48 h
In assay [1] the test system is NCI-H23 lung.
Assay [2] concerns SK-MEL-5 melanoma.
In assay [3] the test system is PC-3 prostate.
The test system of assay [4] is DU-145 prostate.
For assay [5], the system named is SF-295 CNS.
Assay [6] has as its system HL-60(TB) leukemia.
In assay [7] the test system is A549 NSCLC.
Assay [8] has as its system HOP-92 NSCLC.
For assay [9], the system named is EKVX NSCLC.
Assay [10] relates to TK-10 renal.

Several values for one entry are separate records, joined by “and”; a condition that tells them apart may be missing. Identical values can stand only once.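 Briefly, cells in 96-well plates were exposed to five compound concentrations for 48 h, and endpoints were estimated by linear interpolation. At the GI50, growth is halved. TGI: total growth inhibition.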

Turning to `C(#Cc1ccccc1C#Cc1cnccn1)c1cnccn1`, the GI50 in assay [1] is 21.9 µM; in assay [2], 16.9 µM; in assay [3], 18.6 µM; in assay [4], 21.8 µM; in [5], 30.3 µM; in assay [6], 9.32 µM. Also, the GI50 in assay [7] is 34.5 µM; in assay [8], 79.5 µM; in assay [9], 35.3 µM; in [10], 27.2 µM. Moreover, the TGI in assay [1] is 57.3 µM; in assay [2], 35.9 µM; in assay [3], 55.3 µM; in assay [4] it was above 100 µM; in assay [5], above 74 µM; in assay [6], 22.5 µM. Also, the TGI was above 86.3 µM in assay [7], above 100 µM in assay [8], above 100 µM in assay [9] and above 78.2 µM in assay [10].

Consider `CC(C)OC(=O)NNc1c(Cl)cc(Cl)cc1Cl`, for which the TGI in [1] was above 100 µM; in assay [2], 60.5 µM; in [3] it was above 100 µM; in assay [4] it was above 100 µM; in assay [5] it was above 100 µM; in assay [6], above 100 µM. In addition, the TGI in [7], in assay [8], in [9] and in assay [10] was above 100 µM each time.

On to `COc1cccc(/C=C2\COc3ccc(O)c(O)c3C2=O)c1OC`, for which the GI50 in [1] is 2.9 µM; in assay [2] it was 2.05 µM; in [3], 2.22 µM; in assay [4], 2.61 µM; in [5], 6.07 µM; in assay [6], 1.04 µM. Also, the GI50 is 2.58 µM in assay [7], 2.69 µM in assay [8], 4.29 µM in assay [9] and 2.36 µM in assay [10]. The TGI in assay [1] was 11.1 µM; in [2], 4.3 µM; in [3], 11 µM; in [4], 10.4 µM; in assay [5] it was 19.1 µM; in [6], above 100 µM. Also, the TGI in assay [7] was determined as 14.2 µM; in assay [8] it was 8.81 µM; in [9], 16.9 µM; in assay [10] it was 8.19 µM.

In the case of `O=C(Nc1ccc(Br)cc1)c1cc(Br)ccc1O`, the GI50 was 0.345 µM and 0.467 µM in [1]; 0.304 µM and 0.416 µM in assay [2]; 0.973 µM and 2.69 µM in assay [3]; 0.539 µM and 2.03 µM in [4]; 0.712 µM and 1.39 µM in assay [5]; 0.408 µM and 1.12 µM in assay [6]. The GI50 is 1.09 µM and 2.5 µM in assay [7]; 0.218 µM and 0.332 µM in assay [8]; 0.788 µM and 0.75 µM in assay [9]; 0.379 µM and 1.56 µM in assay [10]. For the same compound, the TGI is 2.06 µM and 4.34 µM in assay [1]; 1.16 µM and 1.56 µM in assay [2]; 12.7 µM and > 29 µM in [3]; > 47 µM and 14.1 µM in assay [4]; 2.3 µM and 4.08 µM in assay [5]; 4.54 µM and 3.8 µM in assay [6]. In addition, the TGI is above 100 µM in assay [7]; 0.698 µM and 2.88 µM in assay [8]; 36.6 µM and > 20.1 µM in [9]; above 22.1 µM in [10].

`O=C1/C(=C/c2ccccc2)CN(C(=O)/C=C/c2ccccc2)C/C1=C\c1ccccc1`: the TGI is 32.6 µM in assay [1]; above 35 µM in assay [2]; 4.33 µM in [3]; 40.9 µM in [4]; 17 µM in [5]; 16.4 µM in [6]. The TGI in assay [7] came out at 37.2 µM; in [8], 62.2 µM; in assay [9] it was 50.1 µM; in assay [10], 65.3 µM.

In the case of `O=C1c2ccccc2-n2c1nc1ccc([N+](=O)[O-])cc1c2=O`, the TGI in [1] is above 100 µM; in [2], above 100 µM; in assay [3], above 100 µM; in [4] it was above 100 µM; in assay [5] it was 79.7 µM; in assay [6] it was 43.5 µM. The TGI in assay [7], in assay [8], in [9] and in assay [10] was above 100 µM throughout.

As to `Nc1ncnc2occ(-c3ccc(NC(=O)Nc4cccc(C(F)(F)F)c4)cc3)c12`, the GI50 in [1] was 4.1 µM; in assay [2] it was 3.06 µM; in assay [3], 4.94 µM; in assay [4], 4.82 µM; in assay [5] it was 3.76 µM; in assay [6], 5.1 µM. Moreover, the GI50 is 4.73 µM in [7], 3.43 µM in assay [8], 4.46 µM in assay [9] and 2.9 µM in [10]. Besides, the TGI in [1] came out at 13.3 µM; in assay [2], 6.21 µM; in [3] it was 13.3 µM; in assay [4], 16.1 µM; in [5], 15.7 µM; in assay [6], 14.2 µM. For the same compound, the TGI in assay [7] was found to be 14.9 µM; in [8], 10.1 µM; in assay [9], 14.5 µM; in [10], 11.8 µM.

For the compound `O=C(O)CC(CC(=O)O)n1cccc1`, the TGI in assay [1], in assay [2], in [3], in assay [4], in [5] and in [6] was above 100 µM in each case. The TGI in assay [7], in [8], in assay [9] and in [10] was above 100 µM each time.

For the compound `O=C(NCCc1nccs1)c1cnc2c(S)cccc2c1`, the GI50 was 3.91 µM in assay [1]; 3.2 µM in assay [2]; 4.39 µM in assay [3]; 3.27 µM in assay [4]; 2.8 µM in [5]; 10.7 µM in assay [6]. Besides, the GI50 in assay [7] is 3.18 µM; in [8], 19.8 µM; in assay [9], 3.1 µM; in assay [10] it was 5.8 µM. For the same compound, the TGI in assay [1] is above 100 µM; in assay [2], 16 µM; in [3], 26.6 µM; in [4], 13.7 µM; in [5], 17.1 µM; in [6], 70 µM. For the same compound, the TGI in assay [7] was determined as 13.3 µM; in assay [8], 40.8 µM; in assay [9], 38.2 µM; in assay [10], 19.5 µM.

Consider `CC1=C(C(=O)Nc2cc(F)c(F)cc2F)C(c2ccc(N(C)C)cc2)C(C(=O)Nc2cc(F)c(F)cc2F)=C(C)N1`, for which the TGI was above 85.1 µM in [1]; above 74.3 µM in assay [2]; above 100 µM in assay [3]; above 100 µM in [4]; above 77.2 µM in [5]; above 61.2 µM in assay [6]. For the same compound, the TGI in [7] is above 60.5 µM; in assay [8], 15.2 µM; in assay [9], 75.6 µM; in [10], above 96 µM. In addition, the GI50 in assay [3] is 13.7 µM; in assay [4] it was 49.4 µM.

In the case of `Cc1nc2sc(C(=O)Nc3cccc4c3OCCO4)c(N)c2cc1C(C)O` (centres undefined), the GI50 in [1] was 6.67 µM; in assay [2], 4.82 µM; in assay [3], 5 µM; in [4], 8.31 µM; in assay [5], 5.04 µM; in assay [6], 2.99 µM. In addition, the GI50 was 6.25 µM in assay [7], 5.52 µM in assay [8], above 100 µM in assay [9] and above 100 µM in assay [10]. The TGI was above 100 µM in assay [1]; above 100 µM in [2]; above 100 µM in assay [3]; above 100 µM in assay [4]; above 100 µM in assay [5]; 13 µM in [6]. In addition, the TGI in assay [7], in assay [8], in [9] and in assay [10] was above 100 µM in each case.

Regarding `O=C1c2c[n+](Cc3ccccc3)ccc2-c2nc3ccccc3c3ccnc1c23`, the GI50 in [1] is 0.158 µM; in [2], 0.439 µM; in assay [3] it was 0.826 µM; in assay [4], 0.417 µM; in assay [5], 0.585 µM; in assay [6], 0.72 µM. In addition, the GI50 in assay [7] is 0.323 µM; in [8] it was 0.548 µM; in assay [9], 1.28 µM; in assay [10], 0.818 µM. In addition, the TGI in assay [1] was 1.26 µM; in [2], 1.04 µM; in assay [3], 3.92 µM; in [4], 0.891 µM; in [5], 5.71 µM; in [6], 1.93 µM. The TGI in assay [7] turned out to be 1.99 µM; in assay [8] it was 1.9 µM; in assay [9], 4.79 µM; in assay [10], 2.8 µM.

Take `CC(=O)OC1C(C)OC(Oc2c(-c3ccc(O)cc3)oc3cc(O)cc(O)c3c2=O)C(O)C1OC(C)=O` (centres undefined): the GI50 is 26.4 µM in assay [1]; 17.4 µM in assay [2]; 30.5 µM in assay [3]; 31.7 µM in [4]; 29.9 µM in assay [5]; 23.9 µM in assay [6]. Also, the GI50 in assay [7] is 49.8 µM; in [8] it was 13.2 µM; in [9] it was 54.2 µM; in assay [10] it was 31.9 µM. The TGI is above 80.7 µM in assay [1]; 39.9 µM in [2]; above 100 µM in assay [3]; above 94.1 µM in assay [4]; above 100 µM in [5]; 61.3 µM in [6]. Also, the TGI in assay [7] is above 100 µM; in [8] it was 54.3 µM; in [9], above 100 µM; in assay [10] it was above 90.8 µM.

With `COc1cc(/C=C/C(=O)c2cccc(-n3cc(-c4ccccc4)[nH]c3=O)c2)ccc1O`, the GI50 in assay [1] is 3.16 µM; in assay [2], 2.48 µM; in assay [3], 2.87 µM; in assay [4], 2.32 µM; in [5] it was 6.75 µM; in assay [6], 2.07 µM. In addition, the GI50 in assay [7] was 4.18 µM; in assay [8] it was 1.99 µM; in assay [9], 6.38 µM; in assay [10], 9.52 µM. The TGI in assay [1] came to 11.6 µM; in [2], 6.65 µM; in assay [3] it was 12 µM; in assay [4], 5.37 µM; in assay [5] it was 21 µM; in assay [6] it was 5.53 µM. For the same compound, the TGI is 17.8 µM in assay [7], 6.68 µM in [8], 36.3 µM in assay [9] and 31.2 µM in [10].

For the compound `CCOC(=O)c1ccc(N[C@@H]2c3cc4c(cc3C(c3cc(OC)c(O)c(OC)c3)[C@H]3C(=O)OCC32)OCO4)cc1` (some centres undefined), the GI50 in [1] was 0.191 µM; in assay [2] it was 0.379 µM; in [5], 0.238 µM and 0.241 µM; in [6], 0.0114 µM; in assay [7] it was 0.103 µM; in [8] it was 0.35 µM. Moreover, the figures for the GI50 in [9] and in [10] were 0.591 µM and 5 µM, respectively. For the same compound, the TGI was 0.768 µM and 2.24 µM in assay [1]; 2.95 µM in [2]; 20.6 µM in assay [3]; above 100 µM in assay [4]; 0.904 µM and 2.2 µM in assay [5]; 0.282 µM and 0.889 µM in [6]. The TGI in assay [7] was 2.76 µM; in [9], 9.17 µM; in assay [10], 11.3 µM.

Regarding `Nc1ncnc2c1ncn2C1OC(F)(COS(N)(=O)=O)C(O)C1O` (centres undefined), the GI50 in [1], in [2], in assay [3], in [4], in assay [5] and in assay [6] was above 100 µM throughout. Moreover, the GI50 is above 100 µM in assay [7], 36.3 µM in [8], above 100 µM in [9] and above 100 µM in [10]. Moreover, the TGI in assay [1], in assay [2], in assay [3], in assay [4], in assay [5] and in assay [6] was above 100 µM throughout. Moreover, the TGI in [7], in assay [8], in assay [9] and in [10] was above 100 µM in each case.

For the origin of these results see PubChem BioAssay (NCI).
